Measured values as given in patent US20110160121A1, “UNACYLATED GHRELIN AND ANALOGS AS THERAPEUTIC AGENTS FOR VASCULAR REMODELING IN DIABETIC PATIENTS AND TREATMENT OF CARDIOVASCULAR DISEASE” (ALIZE PHARMA SAS, priority 2008, published 2011).
Where no end group is shown, it is not given here.

Tests used:
[1] = test system: CAC; assay: Detection of ROS in CAC (DCF-DA assay, FACS); assay type: cell-based, human
Method: First, cell-cycle progression in response to UAG and AG was evaluated. […] To investigate whether this effect relies on inhibition of baseline ROS production, DCF-DA assay was performed. […] H2O2 was used as positive control. AGE-mediated damage signals mainly rely on ROS production (Ref. 29). […] Detection of ROS—DCF-DA (0.5 μM final concentration) was added to CAC in the indicated culture conditions. At the indicated times, the cells were subjected to FACS analysis and processed as previously described (Ref. 22). H2O2 was used as positive control.

[2] = test system: CAC membranes; assay: Saturation binding experiment on CAC membranes (Scatchard analysis); parameters: species or system human
[3] = test system: CAC; assay: CAC mobilization assay in healthy subjects and diabetic patients; assay type: in vivo, human; details: diabetic patients compared to normal subjects, treated for 6 hours; FIG. 3B
Method: This observation led to investigate the effect of UAG treatment on BM CAC mobilization. To this end, normal subject and diabetic patients were treated with UAG or saline for 6 hours. After treatment, CAC were recovered from 4 control subjects and 4 diabetic patients, analyzed by FACS analysis and counted. […] Black lines refer to preimmune IgG used as negative control and grey lines refer to surface marker expression. Similar results were obtained when CAC from untreated diabetic patients or untreated or treated healthy subjects were analyzed (data not shown).
(§1) All the subjects underwent the following testing session: • UAG (3.0 μg/kg/h iv. as infusion for 12 h from 0 to 12 hours); • isotonic saline (infusion from 0 to 12 hours).
Mobilization assay—CAC recovered from healthy subjects and diabetic patients, treated with UAG or saline for 6 h and 12 h, were evaluated. Total number of MNC was counted by 3 independent investigators. The percentage of CAC was calculated by comparing CAC obtained from diabetic patients and healthy donors, treated for 6 h and 12 h with UAG, AG or saline, to CAC recovered at time 0.

[4] = test system: CAC; assay: Arterial morphogenesis by Q-RT-PCR (Ephrin B2, Notch1, Notch4, EphB4) of CAC from treated patients; assay type: in vivo, human; details: cells obtained from treated patients, cultured with IL-3; FIG. 3D
Method: To confirm their vascular features, the cells recovered from patients and controls were cultured with IL-3; which is able to induce expansion and arterial morphogenesis of CD45^+ cells derived from both peripheral blood and BM (Ref. 28).
RNA isolation and quantitative real-time PCR—CAC from diabetic patients, healthy subjects and mice treated with UAG or saline were cultured in EGM-2 medium. Human arterial and venous cells were used as a positive controls. mRNA quantification was performed by Q-RT-PCR, as previously described (Ref. 24). The relative expression of Ephrin B2, Notch1, Notch4 and EphB4 were calculated by using comparative threshold cycle methods. The human and murine primer sequences used were described (Refs. 25, 26).

[5] = test system: CAC; assay: Senescence of CAC recovered from type 2 diabetic patients treated with UAG; parameters: species or system human; details: UAG administered in vivo, CAC recovered after 12 hours, FIG. 2D
Method: After 12 hours of treatment, CAC were recovered from UAG treated and untreated patients and cultured.
as §1
CAC Senescence—Senescence was evaluated by acidic β-gal activity on CAC recovered from normal subjects cultured in EGM2 medium for 4 days with UAG or AGE+UAG and saline- or UAG-treated diabetic patients (Ref. 22). Briefly, CAC were washed in phosphate-buffered saline, fixed for 3 min at room temperature in 2% paraformaldehyde, washed, and incubated for 24 h at 37° C. with fresh SA-β-gal stain solution: 1 mg/ml 5-bromo-4-chloro-3-indolyl β-D-galactopyranoside (X-gal), 5 mM/liter potassium ferrocyanide, 5 mM/liter ferricyanide, 150 mM/liter NaCl, 2 mM/liter MgCl2, 0.01% sodium deoxycholate, and 0.02% Nonidet P-40. SA-β-gal-positive cells were counted manually by 3 independent investigators.

[6] = test system: CAC membranes; assay: Competition binding with [125I-Tyr4]-UAG on CAC membranes; parameters: species or system human; details: 100 nM competitor, 0.25 nM radioligand; FIG. 5A
Source text: The specific binding of [^125I-Tyr^4]-UAG (calculated as difference between binding in the absence, control, and in the presence of UAG) represented about 75% of the control value (P<0.001) and was detected either on fresh (0.25 and 0.26 fmol) or frozen-thawed (0.20 and 0.33 fmol) CAC membranes from two different cell preparations.

[7] = test system: CAC; assay: Matrigel-plug assay: de novo vessel formation by CAC from diabetic patients in SCID mice; assay type: in vivo, human
Method: To evaluate whether CAC recovered from UAG-treated diabetic patients rescue their vasculogenic capability, de novo vessel formation was assayed in vivo. To this end, Matrigel plugs containing IL-3 and CSFE-labelled CAC, recovered from untreated or UAG-treated patients, were injected into SCID mice, 15 days after injection Matrigel plugs were recovered and analyzed by immunohistochemistry. […] On the contrary no functional vessels could be detected when CAC recovered from untreated patients were used (FIG. 4E, panel a (left)). To exclude the possibility that the neo-vessels derived from vasculogenic cells of host origin, immunofluorescence assay was performed using the anti-human HLA Class I and the anti-mouse MHC II antibodies.
Matrigel-plug assay—For murine angiogenesis assay, untreated or UAG-treated CAC, obtained from type 2 diabetic patients, were counted and resuspended in DMEM (4×10^6 in 250 μL DMEM). […]
Immunohistochemistry and immunofluorescence—For immunohistochemistry, sections from paraffin-embedded blocks of Matrigel plugs were collected onto poly-lysine-coated slides. […] The percentage of positive cells was counted in 4 non-sequential sections for each experiment at ×40 magnification. […] The number of MHC II or HLA I positive vessels was determined by counting 10 randomly selected fields in three different samples.

[8] = Scatchard analysis, CAC membranes

1-NH2Gly-Ser-Ser-Phe-Leu-Ser-Pro-Glu-His-Gln-Arg-Val-Gln-Gln-Arg-Lys-Glu-Ser-Lys-Lys-Pro-Pro-Ala-Lys-Leu-Gln-Pro-Arg-28 (H-GSSFLSPEHQRVQQRKESKKPPAKLQPR; ends and bridges not checked; listed as Homo sapiens) [UAG]
level of ROS production in AGE-cultured cells ([1]; AGE-cultured CAC, FIG. 1C, 1F): the level of ROS production in AGE-cultured cells was reduced | intracellular ROS production in diabetic-recovered cells ([1]; CAC isolated from type 2 diabetic patients, treated in vitro, FIG. 1D): reduced intracellular ROS production | baseline level of ROS production ([1]; CAC, compared to untreated cells, FIG. 1B, 1E): drastically reduces the baseline level of ROS production | radioligand concentration at maximum specific binding (saturable) ([2]; CAC membranes, FIG. 5B): 2 nM | Bmax [2, 8]: 10.7 fmol/mg membrane protein | Hill coefficient [2, 8]: ~1 | Kd ([2]; Scatchard analysis, single class of binding sites on CAC): 0.48 nM | number of recovered cells (CAC) [3]: strong increase in the number of recovered cells | arterial specification (Ephrin B2, Notch1, Notch4; EphB4) [4]: able to undergo arterial specification | number of senescent cells [5]: reduced the number of senescent cells | inhibition of binding of [125I-Tyr4]-UAG to CAC membranes [6]: inhibited | de novo formation of functional vessels ([7]; CSFE-labelled CAC from UAG-treated diabetic patients, Matrigel plugs with IL-3 in SCID mice, 15 days, FIG. 4E): formed functional vessels | origin of vessels (human HLA Class I vs mouse MHC II) ([7]; Matrigel plugs, immunofluorescence, FIG. 4F): majority of vessels are lined by human HLA Class I positive cells
